Test results published in the kinase profiling compilation of Christmann-Franck et al. (2016).

Assays:
Assay in all cases: KINOMEscan competition binding
Details in all cases: compound 10.0 µM
PRKAA2 (human) = PRKAA2 (human) (UniProt P54646)
CDK4 CCND3 (human) = CDK4 CCND3 (human) (UniProt P11802+P30281)
GRK7 (human) = GRK7 (human) (UniProt Q8WTQ7)
MARK1 (human) = MARK1 (human) (UniProt Q9P0L2)
[1] = target: JAK2 JH1 catalytic (human) (UniProt O60674)
RIOK3 (human) = RIOK3 (human) (UniProt O14730)
STK17A (human) = STK17A (human) (UniProt Q9UEE5)
MINK1 (human) = MINK1 (human) (UniProt Q8N4C8)
CAMK2B (human) = CAMK2B (human) (UniProt Q13554)
STK38L (human) = STK38L (human) (UniProt Q9Y2H1)
AURKA (human) = AURKA (human) (UniProt O14965)
EPHA1 (human) = EPHA1 (human) (UniProt P21709)
EPHA1 (human), sequence (P21709 whole entry, looked up): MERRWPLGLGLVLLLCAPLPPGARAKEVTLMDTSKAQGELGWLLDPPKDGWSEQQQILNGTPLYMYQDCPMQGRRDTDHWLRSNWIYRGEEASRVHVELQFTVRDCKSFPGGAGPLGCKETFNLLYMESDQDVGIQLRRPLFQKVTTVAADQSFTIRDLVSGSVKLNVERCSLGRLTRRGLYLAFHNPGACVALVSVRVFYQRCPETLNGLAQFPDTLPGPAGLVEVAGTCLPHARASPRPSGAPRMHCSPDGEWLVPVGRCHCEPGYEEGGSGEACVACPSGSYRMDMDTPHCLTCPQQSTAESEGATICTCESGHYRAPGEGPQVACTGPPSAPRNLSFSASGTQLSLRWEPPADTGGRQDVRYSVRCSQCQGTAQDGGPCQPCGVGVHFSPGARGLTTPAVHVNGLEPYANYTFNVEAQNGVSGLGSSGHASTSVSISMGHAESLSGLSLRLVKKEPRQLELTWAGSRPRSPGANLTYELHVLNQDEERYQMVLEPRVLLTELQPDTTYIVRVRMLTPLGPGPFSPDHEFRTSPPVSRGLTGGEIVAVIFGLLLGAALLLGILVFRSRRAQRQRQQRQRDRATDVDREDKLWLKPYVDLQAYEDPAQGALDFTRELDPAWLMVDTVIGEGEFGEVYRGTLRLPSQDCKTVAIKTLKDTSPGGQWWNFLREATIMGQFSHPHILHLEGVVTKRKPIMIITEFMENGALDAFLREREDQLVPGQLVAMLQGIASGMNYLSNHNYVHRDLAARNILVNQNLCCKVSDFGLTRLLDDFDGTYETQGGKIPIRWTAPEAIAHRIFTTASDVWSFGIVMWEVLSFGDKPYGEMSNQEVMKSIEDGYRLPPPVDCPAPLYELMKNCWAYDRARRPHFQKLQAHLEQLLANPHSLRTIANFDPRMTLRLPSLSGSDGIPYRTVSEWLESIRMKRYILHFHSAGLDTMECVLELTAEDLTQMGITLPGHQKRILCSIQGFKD

KIT (human) = KIT (human) (UniProt P10721)
KIT (human), sequence (P10721 whole entry, looked up): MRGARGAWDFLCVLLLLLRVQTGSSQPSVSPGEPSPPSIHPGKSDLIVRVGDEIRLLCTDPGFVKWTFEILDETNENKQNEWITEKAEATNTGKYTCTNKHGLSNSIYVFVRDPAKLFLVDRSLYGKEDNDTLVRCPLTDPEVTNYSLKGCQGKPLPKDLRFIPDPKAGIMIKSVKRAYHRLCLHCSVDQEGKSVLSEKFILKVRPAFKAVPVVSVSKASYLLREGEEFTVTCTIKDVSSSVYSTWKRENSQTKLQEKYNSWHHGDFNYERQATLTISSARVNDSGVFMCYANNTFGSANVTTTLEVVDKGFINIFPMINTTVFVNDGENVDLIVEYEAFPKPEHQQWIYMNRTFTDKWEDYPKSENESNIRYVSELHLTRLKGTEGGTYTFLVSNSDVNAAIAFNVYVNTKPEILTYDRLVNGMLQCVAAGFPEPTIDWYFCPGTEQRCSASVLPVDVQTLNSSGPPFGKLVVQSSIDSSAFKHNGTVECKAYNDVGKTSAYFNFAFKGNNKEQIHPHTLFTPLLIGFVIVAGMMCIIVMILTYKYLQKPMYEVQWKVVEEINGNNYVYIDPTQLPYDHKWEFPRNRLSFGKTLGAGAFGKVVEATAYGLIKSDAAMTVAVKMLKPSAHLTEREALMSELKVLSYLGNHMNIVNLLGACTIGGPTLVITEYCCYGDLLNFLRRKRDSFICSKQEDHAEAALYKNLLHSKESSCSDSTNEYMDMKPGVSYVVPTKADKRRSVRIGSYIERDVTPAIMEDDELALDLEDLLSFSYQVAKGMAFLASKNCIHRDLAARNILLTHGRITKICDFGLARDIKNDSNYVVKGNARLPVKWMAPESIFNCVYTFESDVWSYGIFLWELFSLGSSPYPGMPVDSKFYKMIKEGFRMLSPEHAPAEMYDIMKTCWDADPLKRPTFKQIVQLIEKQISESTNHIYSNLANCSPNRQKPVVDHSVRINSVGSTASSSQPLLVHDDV

EIF2AK2 (human) = EIF2AK2 (human) (UniProt P19525)
DAPK3 (human) = DAPK3 (human) (UniProt O43293)
CAMK2G (human) = CAMK2G (human) (UniProt Q13555)
CAMK4 (human) = CAMK4 (human) (UniProt Q16566)
CAMK4 (human), sequence (Q16566 whole entry, looked up): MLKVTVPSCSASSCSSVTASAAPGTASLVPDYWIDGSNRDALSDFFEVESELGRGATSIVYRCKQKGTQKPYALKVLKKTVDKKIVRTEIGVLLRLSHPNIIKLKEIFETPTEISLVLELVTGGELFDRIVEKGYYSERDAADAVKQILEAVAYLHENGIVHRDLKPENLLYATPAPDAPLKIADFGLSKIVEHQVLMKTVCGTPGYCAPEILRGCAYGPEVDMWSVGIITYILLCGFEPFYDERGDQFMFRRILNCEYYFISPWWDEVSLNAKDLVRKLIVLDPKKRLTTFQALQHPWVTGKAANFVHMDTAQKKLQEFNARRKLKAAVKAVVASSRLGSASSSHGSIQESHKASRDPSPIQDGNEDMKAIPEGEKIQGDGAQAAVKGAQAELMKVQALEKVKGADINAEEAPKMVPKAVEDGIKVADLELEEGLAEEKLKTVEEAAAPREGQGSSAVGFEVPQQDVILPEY

FGFR2 (human) = FGFR2 (human) (UniProt P21802)
ADCK4 (human) = ADCK4 (human) (UniProt Q96D53)
RIPK1 (human) = RIPK1 (human) (UniProt Q13546)
MST4 (human) = MST4 (human) (UniProt Q9P289)
LCK (human) = LCK (human) (UniProt P06239)
RPS6KB1 (human) = RPS6KB1 (human) (UniProt P23443)
DCLK1 (human) = DCLK1 (human) (UniProt O15075)
BTK (human) = BTK (human) (UniProt Q06187)
BTK (human), sequence (Q06187 whole entry, looked up): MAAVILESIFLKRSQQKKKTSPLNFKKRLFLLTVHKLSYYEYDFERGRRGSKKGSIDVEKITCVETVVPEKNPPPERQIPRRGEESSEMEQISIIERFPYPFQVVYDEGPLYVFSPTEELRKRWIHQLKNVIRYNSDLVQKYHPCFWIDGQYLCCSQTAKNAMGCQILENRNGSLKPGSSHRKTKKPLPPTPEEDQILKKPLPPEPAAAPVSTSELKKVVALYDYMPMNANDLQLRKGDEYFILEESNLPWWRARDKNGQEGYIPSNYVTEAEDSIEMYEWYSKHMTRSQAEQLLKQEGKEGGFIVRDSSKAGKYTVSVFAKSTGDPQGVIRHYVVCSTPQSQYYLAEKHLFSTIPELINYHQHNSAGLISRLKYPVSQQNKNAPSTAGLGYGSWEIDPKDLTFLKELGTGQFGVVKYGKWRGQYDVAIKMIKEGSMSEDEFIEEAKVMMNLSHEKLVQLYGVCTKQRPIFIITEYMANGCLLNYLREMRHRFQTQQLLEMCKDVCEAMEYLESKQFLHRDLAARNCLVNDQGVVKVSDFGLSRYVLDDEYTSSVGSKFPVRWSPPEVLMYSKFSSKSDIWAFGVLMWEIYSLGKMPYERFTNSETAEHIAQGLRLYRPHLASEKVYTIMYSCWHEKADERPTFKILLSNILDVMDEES

MAST1 (human) = MAST1 (human) (UniProt Q9Y2H9)
MAP2K4 (human) = MAP2K4 (human) (UniProt P45985)
PHKG1 (human) = PHKG1 (human) (UniProt Q16816)
FES (human) = FES (human) (UniProt P07332)
CDK15 (human) = CDK15 (human) (UniProt Q96Q40)
CDKL3 (human) = CDKL3 (human) (UniProt Q8IVW4)
GSK3A (human) = GSK3A (human) (UniProt P49840)
GAK (human) = GAK (human) (UniProt O14976)
MAPK1 (human) = MAPK1 (human) (UniProt P28482)
ACVR2A (human) = ACVR2A (human) (UniProt P27037)
PIK3CD (human) = PIK3CD (human) (UniProt O00329)
PRKX (human) = PRKX (human) (UniProt P51817)
MYO3B (human) = MYO3B (human) (UniProt Q8WXR4)
MAP2K3 (human) = MAP2K3 (human) (UniProt P46734)
MAP2K3 (human), sequence (P46734 whole entry, looked up): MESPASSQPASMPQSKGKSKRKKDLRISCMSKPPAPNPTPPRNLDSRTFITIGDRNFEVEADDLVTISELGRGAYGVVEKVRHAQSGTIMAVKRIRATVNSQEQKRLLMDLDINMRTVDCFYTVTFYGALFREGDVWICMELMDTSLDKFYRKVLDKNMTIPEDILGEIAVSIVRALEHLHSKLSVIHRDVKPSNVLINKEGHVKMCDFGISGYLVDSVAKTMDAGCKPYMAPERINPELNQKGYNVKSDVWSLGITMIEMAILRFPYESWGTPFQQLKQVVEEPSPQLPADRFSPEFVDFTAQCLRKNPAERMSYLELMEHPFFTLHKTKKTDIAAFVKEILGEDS

MAP3K3 (human) = MAP3K3 (human) (UniProt Q99759)
MAP3K3 (human), sequence (Q99759 whole entry, looked up): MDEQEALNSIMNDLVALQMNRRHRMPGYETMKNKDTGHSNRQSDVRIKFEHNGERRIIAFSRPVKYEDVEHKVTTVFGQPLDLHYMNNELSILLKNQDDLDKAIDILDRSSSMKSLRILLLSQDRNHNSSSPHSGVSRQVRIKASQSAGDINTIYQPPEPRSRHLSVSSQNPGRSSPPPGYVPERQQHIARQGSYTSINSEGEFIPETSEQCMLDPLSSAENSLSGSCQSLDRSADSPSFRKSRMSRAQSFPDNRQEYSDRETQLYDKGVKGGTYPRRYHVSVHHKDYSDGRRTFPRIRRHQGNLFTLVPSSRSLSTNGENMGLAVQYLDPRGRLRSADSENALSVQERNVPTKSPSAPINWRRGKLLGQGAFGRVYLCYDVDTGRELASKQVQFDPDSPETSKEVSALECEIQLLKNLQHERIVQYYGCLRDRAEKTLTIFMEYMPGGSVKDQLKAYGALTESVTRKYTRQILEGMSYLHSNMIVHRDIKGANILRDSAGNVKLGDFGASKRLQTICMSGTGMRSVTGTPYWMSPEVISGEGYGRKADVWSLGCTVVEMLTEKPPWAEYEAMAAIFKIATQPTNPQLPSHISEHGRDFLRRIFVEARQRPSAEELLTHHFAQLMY

MARK1 (human), sequence (Q9P0L2 whole entry, looked up): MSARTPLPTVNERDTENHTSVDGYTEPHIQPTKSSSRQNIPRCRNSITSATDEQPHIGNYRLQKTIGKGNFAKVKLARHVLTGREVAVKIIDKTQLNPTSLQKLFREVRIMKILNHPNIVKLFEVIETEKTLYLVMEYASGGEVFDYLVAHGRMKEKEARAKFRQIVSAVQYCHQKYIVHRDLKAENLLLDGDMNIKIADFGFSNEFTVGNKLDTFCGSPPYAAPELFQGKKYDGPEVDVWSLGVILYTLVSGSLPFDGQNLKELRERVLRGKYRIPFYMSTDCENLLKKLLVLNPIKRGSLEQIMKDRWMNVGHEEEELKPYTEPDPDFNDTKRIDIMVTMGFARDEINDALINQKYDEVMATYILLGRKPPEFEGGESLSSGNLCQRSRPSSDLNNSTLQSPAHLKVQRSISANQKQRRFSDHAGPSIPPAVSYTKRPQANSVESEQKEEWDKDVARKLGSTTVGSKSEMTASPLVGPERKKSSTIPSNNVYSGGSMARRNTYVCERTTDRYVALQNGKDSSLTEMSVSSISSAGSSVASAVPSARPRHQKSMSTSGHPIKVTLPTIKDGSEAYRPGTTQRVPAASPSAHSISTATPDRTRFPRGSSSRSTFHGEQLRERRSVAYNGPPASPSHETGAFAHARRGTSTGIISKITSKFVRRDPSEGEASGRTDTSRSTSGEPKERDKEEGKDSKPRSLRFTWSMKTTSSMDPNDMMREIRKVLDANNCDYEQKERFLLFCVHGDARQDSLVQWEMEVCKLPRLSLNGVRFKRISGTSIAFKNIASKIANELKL

Row | SMILES | kinase still bound, per cent of control (PRKAA2 (human)) [%] | kinase still bound, per cent of control (CDK4 CCND3 (human)) [%] | kinase still bound, per cent of control (GRK7 (human)) [%] | kinase still bound, per cent of control (MARK1 (human)) [%] | kinase still bound, per cent of control [1] [%] | kinase still bound, per cent of control (RIOK3 (human)) [%] | kinase still bound, per cent of control (STK17A (human)) [%] | kinase still bound, per cent of control (MINK1 (human)) [%] | kinase still bound, per cent of control (CAMK2B (human)) [%] | kinase still bound, per cent of control (STK38L (human)) [%] | kinase still bound, per cent of control (AURKA (human)) [%] | kinase still bound, per cent of control (EPHA1 (human)) [%] | kinase still bound, per cent of control (KIT (human)) [%] | kinase still bound, per cent of control (EIF2AK2 (human)) [%] | kinase still bound, per cent of control (DAPK3 (human)) [%] | kinase still bound, per cent of control (CAMK2G (human)) [%] | kinase still bound, per cent of control (CAMK4 (human)) [%] | kinase still bound, per cent of control (FGFR2 (human)) [%] | kinase still bound, per cent of control (ADCK4 (human)) [%] | kinase still bound, per cent of control (RIPK1 (human)) [%] | other results
1 | C=CC(=O)Nc1cc(-n2c(=O)ccc3cnc4ccc(-c5cn[nH]c5)cc4c32)ccc1C | 78 | 87 | 52 | 78 | 16 | 31 | 100 | 31 | 44 | 100 | 63 | 94 | 65 | 94 | 61 | 45 | 100 | 94 | 86 | 100 | kinase still bound, per cent of control (MST4 (human)): 79%; kinase still bound, per cent of control (LCK (human)): 64%; kinase still bound, per cent of control (RPS6KB1 (human)): 63%; kinase still bound, per cent of control (DCLK1 (human)): 94%; kinase still bound, per cent of control (BTK (human)): 0.2%; kinase still bound, per cent of control (MAST1 (human)): 85%; kinase still bound, per cent of control (MAP2K4 (human)): 14%; kinase still bound, per cent of control (PHKG1 (human)): 58%; kinase still bound, per cent of control (FES (human)): 100%; kinase still bound, per cent of control (CDK15 (human)): 49%; kinase still bound, per cent of control (CDKL3 (human)): 33%; kinase still bound, per cent of control (GSK3A (human)): 13%; kinase still bound, per cent of control (GAK (human)): 18%; kinase still bound, per cent of control (MAPK1 (human)): 100%; kinase still bound, per cent of control (ACVR2A (human)): 76%; kinase still bound, per cent of control (PIK3CD (human)): 27%; kinase still bound, per cent of control (PRKX (human)): 100%; kinase still bound, per cent of control (MYO3B (human)): 100%; kinase still bound, per cent of control (MAP2K3 (human)): 8.6%; kinase still bound, per cent of control (MAP3K3 (human)): 91%
2 | COc1ccc(N(C(=O)Oc2c(C)cccc2C)c2ccnc(Nc3ccc(N4CCN(C)CC4)cc3)n2)c(OC)c1 | 7.9 | 26 | 72 | 24 | 35 | 5.1 | 100 | 14 | 98 | 100 | 6.8 | 0 | 0.45 | 92 | 88 | 100 | 100 | 0.45 | 20 | 63 | kinase still bound, per cent of control (MST4 (human)): 33%; kinase still bound, per cent of control (LCK (human)): 0.1%; kinase still bound, per cent of control (RPS6KB1 (human)): 72%; kinase still bound, per cent of control (DCLK1 (human)): 84%; kinase still bound, per cent of control (BTK (human)): 1.3%; kinase still bound, per cent of control (MAST1 (human)): 100%; kinase still bound, per cent of control (MAP2K4 (human)): 100%; kinase still bound, per cent of control (PHKG1 (human)): 12%; kinase still bound, per cent of control (FES (human)): 0.35%; kinase still bound, per cent of control (CDK15 (human)): 94%; kinase still bound, per cent of control (CDKL3 (human)): 0.1%; kinase still bound, per cent of control (GSK3A (human)): 100%; kinase still bound, per cent of control (GAK (human)): 5.6%; kinase still bound, per cent of control (MAPK1 (human)): 87%; kinase still bound, per cent of control (ACVR2A (human)): 0.75%; kinase still bound, per cent of control (PIK3CD (human)): 92%; kinase still bound, per cent of control (PRKX (human)): 41%; kinase still bound, per cent of control (MYO3B (human)): 18%; kinase still bound, per cent of control (MAP2K3 (human)): 66%; kinase still bound, per cent of control (MAP3K3 (human)): 0.75%
